Test results as given in PMC2248166, “Quantitative peptide binding motifs for 19 human and mouse MHC class I molecules derived using positional scanning combinatorial peptide libraries” (Immunome Research, 2008).
Where a SMILES comes first, the peptide text is derived from it.

Tests used:
Experiment in all cases: biochemical
Format in all cases: binding
[1] = target: HLA A*3001 (Homo sapiens, UniProt P04439, D140H/D185E/E176W/F33S/G80R/H175R/K168Q/R138E/R41S)
[2] = target: HLA B*1501 (Homo sapiens, UniProt P01889, A329T/A93T/A95T/C349S/D201E/D98Y/E187L/E204Q/E69M/E70A/K202T/N87E/Q94N/R155S/R180W/S121R/S35A/S48A/V306I/V36M/Y140S/Y91S)
[3] = target: HLA B*1503 (Homo sapiens, UniProt P01889, A329T/A93T/A95T/C349S/D201E/D98Y/E187L/E204Q/K202T/N87E/Q94N/R155S/R180L/S121R/S35A/V306I/V36M/Y140S/Y91S)

HLA A*3001, sequence (P04439 25-365 limits assumed, stated change not applied): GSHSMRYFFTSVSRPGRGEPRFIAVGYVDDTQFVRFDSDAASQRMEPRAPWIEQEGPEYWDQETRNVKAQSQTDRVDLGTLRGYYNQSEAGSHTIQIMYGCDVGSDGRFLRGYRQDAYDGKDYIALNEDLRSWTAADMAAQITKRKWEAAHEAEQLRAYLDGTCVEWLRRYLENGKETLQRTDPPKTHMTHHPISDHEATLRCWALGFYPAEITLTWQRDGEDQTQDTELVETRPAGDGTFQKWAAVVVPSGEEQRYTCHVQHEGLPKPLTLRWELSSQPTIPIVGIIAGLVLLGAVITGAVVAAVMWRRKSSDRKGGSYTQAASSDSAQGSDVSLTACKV

Row | Compound | IC50 [1] [nM] | IC50 [2] [nM] | IC50 [3] [nM]
1 | CC[C@H](C)[C@H](NC(=O)[C@H](C)NC(=O)[C@H](Cc1ccc(O)cc1)NC(=O)[C@H](CCCCN)NC(=O)[C@H](CCCCN)NC(=O)[C@H](CCCCN)NC(=O)[C@@H](NC(=O)[C@@H](N)CCCCN)C(C)C)C(=O)NCC(=O)O [3102.0280] (H-KVKKKYAIG-OH) | 1.6 | – | –
2 | CC(C)C[C@H](NC(=O)[C@H](CCCNC(=N)N)NC(=O)[C@H](Cc1ccc(O)cc1)NC(=O)[C@H](CCC(=O)O)NC(=O)[C@H](CCC(N)=O)NC(=O)[C@H](Cc1ccccc1)NC(=O)[C@@H](NC(=O)[C@@H](N)Cc1c[nH]cn1)C(C)C)C(=O)N[C@@H](CCCCN)C(=O)O [3102.0284] (H-HVFQEYRLK-OH) | 27 | – | –
3 | CC[C@H](C)[C@H](NC(=O)[C@H](CCCCN)NC(=O)[C@@H](NC(=O)[C@@H](N)CCCCN)[C@@H](C)O)C(=O)N[C@@H](CC(=O)O)C(=O)N[C@H](C(=O)N[C@H](C(=O)N[C@@H](Cc1ccccc1)C(=O)N[C@@H](C)C(=O)O)[C@@H](C)CC)[C@@H](C)CC [3102.0285] (H-KTKIDIIFA-OH) | 10 | – | –
4 | CC(C)C[C@H](NC(=O)[C@H](C)NC(=O)[C@H](CCC(=O)O)NC(=O)[C@H](CCCNC(=N)N)NC(=O)[C@@H](NC(=O)[C@@H](N)CCCCN)C(C)C)C(=O)N[C@@H](CC(=O)O)C(=O)NCC(=O)N[C@H](C(=O)O)C(C)C [3102.0286] (H-KVREALDGV-OH) | 0.11 | – | –
5 | CSCC[C@H](NC(=O)[C@H](CO)NC(=O)[C@H](C)NC(=O)CNC(=O)[C@H](CCCCN)NC(=O)[C@H](C)NC(=O)[C@H](C)N)C(=O)N[C@H](C(=O)N[C@@H](CC(C)C)C(=O)O)[C@@H](C)O [3102.0287] (H-AAKGASMTL-OH) | 1 | – | –
6 | CC[C@H](C)[C@H](NC(=O)[C@H](CC(N)=O)NC(=O)[C@H](CCCNC(=N)N)NC(=O)[C@@H](NC(=O)[C@@H](NC(=O)[C@H](CC(N)=O)NC(=O)[C@H](CCCNC(=N)N)NC(=O)[C@@H](NC(=O)[C@@H](N)CCCCN)[C@@H](C)O)C(C)C)[C@@H](C)CC)C(=O)O [3102.0486] (H-KTRNVIRNI-OH) | 0.072 | – | –
7 | CC[C@H](C)[C@H](NC(=O)CNC(=O)[C@@H]1CCCN1C(=O)[C@@H](NC(=O)[C@H](CCCNC(=N)N)NC(=O)[C@H](CCC(N)=O)NC(=O)[C@H](CCCCN)NC(=O)[C@H](CC(C)C)NC(=O)[C@@H](N)CCCNC(=N)N)[C@@H](C)O)C(=O)O [3102.0640] (H-RLKQRTPGI-OH) | – | 17 | –
8 | CSCC[C@H](NC(=O)[C@H](CC(C)C)NC(=O)[C@H](Cc1ccc(O)cc1)NC(=O)[C@H](CCCCN)NC(=O)[C@H](CCSC)NC(=O)[C@@H](N)CO)C(=O)N[C@@H](CC(C)C)C(=O)N[C@@H](CC(C)C)C(=O)N[C@@H](Cc1ccccc1)C(=O)O [3102.0789] (H-SMKYLMLLF-OH) | – | 3.8 | –
9 | CC(C)C[C@H](N)C(=O)NCC(=O)N[C@@H](Cc1ccccc1)C(=O)N[C@@H](CC(=O)O)C(=O)N[C@H](C(=O)N[C@H](C(=O)N[C@@H](C)C(=O)N[C@@H](Cc1ccc(O)cc1)C(=O)N[C@@H](Cc1ccccc1)C(=O)O)C(C)C)C(C)C [3102.0790] (H-LGFDVVAYF-OH) | – | 67 | –
10 | CC[C@H](C)[C@H](NC(=O)CN)C(=O)N[C@@H](CC(N)=O)C(=O)N[C@@H](CCCCN)C(=O)N[C@@H](CCCNC(=N)N)C(=O)N[C@@H](CO)C(=O)N[C@H](C(=O)N1CCC[C@H]1C(=O)N[C@@H](Cc1ccccc1)C(=O)O)[C@@H](C)O [3102.0792] (H-GINKRSTPF-OH) | – | 0.72 | –
11 | CC[C@H](C)[C@H](NC(=O)[C@H](CO)NC(=O)[C@H](CO)NC(=O)[C@H](CCCCN)NC(=O)[C@@H](NC(=O)[C@@H](N)CC(C)C)C(C)C)C(=O)N[C@@H](CC(C)C)C(=O)N[C@H](C(=O)N[C@@H](CC(C)C)C(=O)O)[C@@H](C)O [3102.0793] (H-LVKSSILTL-OH) | – | 3.1 | –
12 | CSCC[C@H](NC(=O)[C@@H](N)CCCNC(=N)N)C(=O)N[C@@H](CC(N)=O)C(=O)N[C@H](C(=O)N[C@@H](Cc1ccccc1)C(=O)N[C@@H](CC(N)=O)C(=O)NCC(=O)N[C@@H](Cc1c[nH]cn1)C(=O)N[C@@H](CC(C)C)C(=O)O)C(C)C [3102.0797] (H-RMNVFNGHL-OH) | – | 28 | –
13 | CC(C)C[C@H](N)C(=O)N[C@@H](C)C(=O)N[C@@H](CC(N)=O)C(=O)N[C@H](C(=O)N[C@@H](CC(N)=O)C(=O)N[C@@H](Cc1ccccc1)C(=O)N[C@@H](Cc1ccccc1)C(=O)N[C@H](C(=O)N[C@@H](Cc1ccccc1)C(=O)O)C(C)C)[C@@H](C)O [3102.0800] (H-LANTNFFVF-OH) | – | 17 | –
14 | CC[C@H](C)[C@H](NC(=O)[C@@H](NC(=O)[C@@H](N)CO)[C@@H](C)CC)C(=O)N[C@H](C(=O)N[C@@H](CC(C)C)C(=O)N[C@@H](Cc1ccccc1)C(=O)N[C@@H](CCC(N)=O)C(=O)N[C@@H](CCCNC(=N)N)C(=O)N[C@@H](Cc1ccccc1)C(=O)O)C(C)C [3102.0801] (H-SIIVLFQRF-OH) | – | 1.1 | –
15 | CSCC[C@H](NC(=O)[C@H](CCC(=O)O)NC(=O)[C@H](C)NC(=O)[C@H](CC(N)=O)NC(=O)[C@H](CCC(=O)O)NC(=O)[C@H](CCCCN)NC(=O)[C@H](CC(N)=O)NC(=O)[C@H](CCSC)NC(=O)[C@@H](N)CC(C)C)C(=O)O [3102.0802] (H-LMNKENAEM-OH) | – | 7.7 | –
16 | CC[C@H](C)[C@H](NC(=O)[C@@H](NC(=O)[C@@H](N)CC(C)C)[C@@H](C)CC)C(=O)N[C@@H](CCCCN)C(=O)N[C@@H](CO)C(=O)N[C@@H](CC(=O)O)C(=O)N[C@@H](Cc1c[nH]cn1)C(=O)N[C@@H](CCC(=O)O)C(=O)N[C@@H](Cc1ccccc1)C(=O)O [3102.0804] (H-LIIKSDHEF-OH) | – | 1.6 | –
17 | CC[C@H](C)[C@H](NC(=O)[C@H](CCSC)NC(=O)[C@@H](N)CCC(=O)O)C(=O)N[C@@H](CC(C)C)C(=O)N[C@@H](CO)C(=O)N[C@H](C(=O)N[C@@H](CO)C(=O)N[C@@H](CO)C(=O)N[C@@H](CCSC)C(=O)O)[C@@H](C)O [3102.0806] (H-EMILSTSSM-OH) | – | 1.5 | –
18 | CC[C@H](C)[C@H](NC(=O)[C@H](CCC(N)=O)NC(=O)[C@@H](N)CC(C)C)C(=O)N[C@@H](Cc1ccccc1)C(=O)N[C@@H](CO)C(=O)N[C@@H](CC(N)=O)C(=O)N[C@@H](CO)C(=O)N[C@H](C(=O)NCC(=O)O)C(C)C [3102.0809] (H-LQIFSNSVG-OH) | – | 2.1 | –
19 | CC[C@H](C)[C@H](NC(=O)[C@@H](N)Cc1ccc(O)cc1)C(=O)N[C@@H](CO)C(=O)N[C@@H](CCCCN)C(=O)N[C@H](C(=O)N[C@@H](Cc1ccccc1)C(=O)N[C@@H](CCC(=O)O)C(=O)N[C@@H](Cc1c[nH]cn1)C(=O)N[C@H](C(=O)O)C(C)C)C(C)C [3102.0810] (H-YISKVFEHV-OH) | – | 94 | –
20 | CC(C)C[C@H](N)C(=O)N[C@@H](C)C(=O)N[C@@H](CCCCN)C(=O)N[C@@H](CCCCN)C(=O)N[C@@H](CO)C(=O)N[C@@H](Cc1ccc(O)cc1)C(=O)N[C@H](C(=O)N[C@H](C(=O)N[C@@H](Cc1ccccc1)C(=O)O)C(C)C)C(C)C [3102.0811] (H-LAKKSYVVF-OH) | – | 97 | –
21 | C[C@@H](O)[C@H](N)C(=O)N[C@@H](CO)C(=O)NCC(=O)N[C@@H](CCCCN)C(=O)N[C@@H](Cc1ccc(O)cc1)C(=O)N[C@@H](Cc1ccccc1)C(=O)N[C@@H](CO)C(=O)N[C@H](C(=O)N[C@@H](Cc1ccccc1)C(=O)O)[C@@H](C)O [3102.0812] (H-TSGKYFSTF-OH) | – | 86 | –
22 | CC[C@H](C)[C@H](NC(=O)[C@H](CC(=O)O)NC(=O)[C@H](CC(C)C)NC(=O)[C@H](Cc1ccccc1)NC(=O)[C@@H](N)CC(C)C)C(=O)N[C@@H](CCC(=O)O)C(=O)N[C@@H](CS)C(=O)N[C@@H](Cc1c[nH]cn1)C(=O)N[C@@H](Cc1ccccc1)C(=O)O [3102.0932] (H-LFLDIECHF-OH) | 19 | – | –
23 | CC[C@H](C)[C@H](NC(=O)[C@H](Cc1c[nH]cn1)NC(=O)[C@H](Cc1ccc(O)cc1)NC(=O)[C@H](C)NC(=O)[C@H](CCCCN)NC(=O)[C@@H](N)CCCNC(=N)N)C(=O)N[C@H](C(=O)N[C@@H](Cc1ccccc1)C(=O)N[C@@H](Cc1ccccc1)C(=O)O)[C@@H](C)CC [3102.1054] (H-RKAYHIIFF-OH) | 5.4 | – | 0.037
24 | CC(C)C[C@H](NC(=O)[C@H](CO)NC(=O)[C@H](CCC(N)=O)NC(=O)[C@@H](N)Cc1ccc(O)cc1)C(=O)N[C@@H](CO)C(=O)N1CCC[C@H]1C(=O)N1CCC[C@H]1C(=O)N1CCC[C@H]1C(=O)N[C@@H](Cc1ccccc1)C(=O)O [3102.1242] (H-YQSLSPPPF-OH) | 0.5 | – | 0.061
25 | CC(C)C[C@H](NC(=O)[C@H](CO)NC(=O)[C@H](CCCCN)NC(=O)[C@H](CO)NC(=O)[C@H](C)N)C(=O)N[C@@H](CCCCN)C(=O)N1CCC[C@H]1C(=O)N[C@H](C(=O)N[C@@H](CCCCN)C(=O)O)[C@@H](C)O [3102.1346] (H-ASKSLKPTK-OH) | 15 | – | –
26 | CC[C@H](C)[C@H](NC(=O)[C@H](CCCCN)NC(=O)[C@H](C)NC(=O)CN)C(=O)NCC(=O)N[C@@H](CS)C(=O)N[C@H](C(=O)N[C@@H](CC(N)=O)C(=O)N[C@H](C(=O)O)C(C)C)[C@@H](C)CC [3102.1347] (H-GAKIGCINV-OH) | 9.1 | – | –
27 | CC[C@H](C)[C@H](NC(=O)[C@H](CCCCN)NC(=O)[C@H](CO)NC(=O)[C@H](CCCCN)NC(=O)[C@@H](NC(=O)[C@@H](N)CCCNC(=N)N)[C@@H](C)O)C(=O)N[C@@H](CC(C)C)C(=O)N[C@@H](Cc1ccccc1)C(=O)NCC(=O)O [3102.1348] (H-RTKSKILFG-OH) | 10 | – | –
28 | C[C@H](NC(=O)[C@H](C)NC(=O)[C@@H]1CCCN1C(=O)[C@H](CCCCN)NC(=O)[C@H](CO)NC(=O)[C@H](CCCNC(=N)N)NC(=O)[C@H](CO)NC(=O)[C@H](Cc1ccc(O)cc1)NC(=O)[C@@H](N)CCCCN)C(=O)O [3102.1349] (H-KYSRSKPAA-OH) | 5.7 | – | –
29 | CC[C@H](C)[C@H](NC(=O)[C@H](Cc1ccc(O)cc1)NC(=O)[C@H](CCC(N)=O)NC(=O)[C@H](Cc1ccc(O)cc1)NC(=O)[C@H](CCSC)NC(=O)[C@H](C)NC(=O)[C@H](C)N)C(=O)N[C@@H](Cc1ccccc1)C(=O)N[C@@H](CC(C)C)C(=O)O [3102.1350] (H-AAMYQYIFL-OH) | 7.5 | – | –
